Test results as given in the supplement of paper PMC11451515.

Experiments:
Details in all cases: 48 h
SEM cells [1] = assay: cell viability relative to DMSO control; higher = less cytotoxic
Method in brief: (§1)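 Before seeding, each leukemia line was adapted for at least four passages in each medium. NOMO1 or SEM cells (500 cells/well) and P12-Ichikawa cells (1000 cells/well) went into 1536-well plates at 5 μl, then received library compounds in DMSO by pin dosing across 11 threefold concentrations, 47 μM to 0.79 nM. Readout was CellTiter-Glo One luminescence after 48 h at 37°C, and viability is given as a per-plate percentage of DMSO wells, with cell-free wells as background.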

P12-Ichikawa [2] = assay: as above
Method in brief: as §1

NOMO1 [3] = assay: as above
Method in brief: as §1

SEM cells [4] = assay: AUC of viability dose-response curve (% viability x log10 dose units); higher = less sensitive
Method in brief: (§2)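 Leukemia cells adapted to each medium were seeded at 500 or 1000 cells/well in 1536-well plates and dosed with library compounds in DMSO at 11 threefold doses from 47 μM to 0.79 nM for 48 h at 37°C. CellTiter-Glo One luminescence was normalised per plate to DMSO and cell-free wells, then fitted with a four-parameter log-logistic model over log10 doses. Area under the curve was taken from this fit by the trapezoidal rule, with curves above full viability scaled and curves failing quality control removed.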

P12-Ichikawa [5] = assay: as above
Method in brief: as §2

NOMO1 [6] = assay: as above
Method in brief: as §2

COC[C@H](c1ccc(C(F)(F)F)cc1)N1CCN(C2(C)CCN(C(=O)c3c(C)ncnc3C)CC2)C[C@H]1C.O=C(O)/C=C\C(=O)O
cell viability [%]
Details	NOMO1 [3]	P12-Ichikawa [2]	SEM cells [1]
HPLM + 10% dialyzed FBS, 0.000781 µM	85.7	92	80.5
HPLM + 10% dialyzed FBS, 0.00234 µM	106	100	98.2
HPLM + 10% dialyzed FBS, 0.00702 µM	106	107	105
HPLM + 10% dialyzed FBS, 0.0211 µM	107	111	93.5
HPLM + 10% dialyzed FBS, 0.0632 µM	114	107	90
HPLM + 10% dialyzed FBS, 0.19 µM	99.8	110	104
HPLM + 10% dialyzed FBS, 0.569 µM	111	113	90.2
HPLM + 10% dialyzed FBS, 1.71 µM	70.7	117	92
HPLM + 10% dialyzed FBS, 5.12 µM	63.5	106	99.8
HPLM + 10% dialyzed FBS, 15.4 µM	62.2	103	95.4
HPLM + 10% dialyzed FBS, 46.1 µM	49.9	98.5	61.8
RPMI 5 mM glucose + 10% FBS, 0.000781 µM	87.9	101	66
RPMI 5 mM glucose + 10% FBS, 0.00234 µM	95.7	123	94.5
RPMI 5 mM glucose + 10% FBS, 0.00702 µM	101	109	82.9
RPMI 5 mM glucose + 10% FBS, 0.0211 µM	97.5	110	97.5
RPMI 5 mM glucose + 10% FBS, 0.0632 µM	93.8	106	85.6
RPMI 5 mM glucose + 10% FBS, 0.19 µM	103	121	87.6
RPMI 5 mM glucose + 10% FBS, 0.569 µM	91	109	84.5
RPMI 5 mM glucose + 10% FBS, 1.71 µM	83.8	104	99.6
RPMI 5 mM glucose + 10% FBS, 5.12 µM	65.1	105	92.4
RPMI 5 mM glucose + 10% FBS, 15.4 µM	56.3	99.8	83.8
RPMI 5 mM glucose + 10% FBS, 46.1 µM	62.8	99.3	59.6
RPMI 5 mM glucose + 10% dialyzed FBS, 0.000781 µM	83.9	90.1	85.2
RPMI 5 mM glucose + 10% dialyzed FBS, 0.00234 µM	108	108	93.2
RPMI 5 mM glucose + 10% dialyzed FBS, 0.00702 µM	92	99.7	97.1
RPMI 5 mM glucose + 10% dialyzed FBS, 0.0211 µM	104	110	108
RPMI 5 mM glucose + 10% dialyzed FBS, 0.0632 µM	99.8	103	88.6
RPMI 5 mM glucose + 10% dialyzed FBS, 0.19 µM	105	111	97.3
RPMI 5 mM glucose + 10% dialyzed FBS, 0.569 µM	101	117	103
RPMI 5 mM glucose + 10% dialyzed FBS, 1.71 µM	91.8	110	104
RPMI 5 mM glucose + 10% dialyzed FBS, 5.12 µM	75	102	84
RPMI 5 mM glucose + 10% dialyzed FBS, 15.4 µM	50.9	95.2	98
RPMI 5 mM glucose + 10% dialyzed FBS, 46.1 µM	51.7	92.1	65.8

AUC of viability dose-response curve
Details	NOMO1 [6]	P12-Ichikawa [5]	SEM cells [4]
HPLM + 10% dialyzed FBS	409	469	445
RPMI 5 mM glucose + 10% FBS	411	454	410
RPMI 5 mM glucose + 10% dialyzed FBS	424	467	450

C=CC(=O)Nc1cccc(Nc2nc(NC3CCC(N(C)C)CC3)nc3c2ncn3C(C)C)c1 (stereo not drawn)
cell viability [%]
Details	NOMO1 [3]	P12-Ichikawa [2]	SEM cells [1]
HPLM + 10% dialyzed FBS, 0.000781 µM	96.7	107	107
HPLM + 10% dialyzed FBS, 0.00234 µM	120	115	106
HPLM + 10% dialyzed FBS, 0.00702 µM	114	112	112
HPLM + 10% dialyzed FBS, 0.0211 µM	94.7	106	112
HPLM + 10% dialyzed FBS, 0.0632 µM	111	112	105
HPLM + 10% dialyzed FBS, 0.19 µM	109	113	95.9
HPLM + 10% dialyzed FBS, 0.569 µM	125	105	81.9
HPLM + 10% dialyzed FBS, 1.71 µM	73.8	85.3	40.6
HPLM + 10% dialyzed FBS, 5.12 µM	7.49	36.7	9.48
HPLM + 10% dialyzed FBS, 15.4 µM	5.11	11.1	4.66
HPLM + 10% dialyzed FBS, 46.1 µM	4.77	5.85	4.5
RPMI 5 mM glucose + 10% FBS, 0.000781 µM	127	115	116
RPMI 5 mM glucose + 10% FBS, 0.00234 µM	111	114	107
RPMI 5 mM glucose + 10% FBS, 0.00702 µM	115	114	101
RPMI 5 mM glucose + 10% FBS, 0.0211 µM	100	112	113
RPMI 5 mM glucose + 10% FBS, 0.0632 µM	103	115	117
RPMI 5 mM glucose + 10% FBS, 0.19 µM	104	112	106
RPMI 5 mM glucose + 10% FBS, 0.569 µM	99.6	107	86.9
RPMI 5 mM glucose + 10% FBS, 1.71 µM	98.2	94.8	70.1
RPMI 5 mM glucose + 10% FBS, 5.12 µM	11.9	28.6	10.8
RPMI 5 mM glucose + 10% FBS, 15.4 µM	5.39	8.46	4.33
RPMI 5 mM glucose + 10% FBS, 46.1 µM	3.68	5.44	3.98
RPMI 5 mM glucose + 10% dialyzed FBS, 0.000781 µM	103	108	105
RPMI 5 mM glucose + 10% dialyzed FBS, 0.00234 µM	98.2	110	111
RPMI 5 mM glucose + 10% dialyzed FBS, 0.00702 µM	103	108	109
RPMI 5 mM glucose + 10% dialyzed FBS, 0.0211 µM	103	116	110
RPMI 5 mM glucose + 10% dialyzed FBS, 0.0632 µM	106	122	115
RPMI 5 mM glucose + 10% dialyzed FBS, 0.19 µM	105	119	107
RPMI 5 mM glucose + 10% dialyzed FBS, 0.569 µM	105	123	82.5
RPMI 5 mM glucose + 10% dialyzed FBS, 1.71 µM	72.9	114	40.9
RPMI 5 mM glucose + 10% dialyzed FBS, 5.12 µM	7.93	35.5	9.22
RPMI 5 mM glucose + 10% dialyzed FBS, 15.4 µM	5.45	11	3.79
RPMI 5 mM glucose + 10% dialyzed FBS, 46.1 µM	4.26	6.55	3.4

AUC of viability dose-response curve
Details	NOMO1 [6]	P12-Ichikawa [5]	SEM cells [4]
HPLM + 10% dialyzed FBS	348	366	319
RPMI 5 mM glucose + 10% FBS	361	366	340
RPMI 5 mM glucose + 10% dialyzed FBS	350	377	320

CC(C)N(CC[C@H](c1ccccc1)c1cc(CO)ccc1O)C(C)C
cell viability [%], HPLM + 10% dialyzed FBS
Details	P12-Ichikawa [2]	SEM cells [1]
0.000781 µM	127	106
0.00234 µM	123	118
0.00702 µM	120	125
0.0211 µM	126	141
0.0632 µM	139	131
0.19 µM	137	139
0.569 µM	140	129
1.71 µM	138	134
5.12 µM	129	151
15.4 µM	128	135
46.1 µM	135	119

AUC of viability dose-response curve
Details	NOMO1 [6]	P12-Ichikawa [5]	SEM cells [4]
HPLM + 10% dialyzed FBS	455	464	462
RPMI 5 mM glucose + 10% FBS	468	461	473
RPMI 5 mM glucose + 10% dialyzed FBS	462	466	461

CC[C@@H]1/C=C(\C)C[C@H](C)C[C@H](OC)[C@H]2O[C@@](O)(C(=O)C(=O)N3CCCC[C@H]3C(=O)O[C@H](/C(C)=C/[C@@H]3CC[C@H](Cl)[C@H](OC)C3)[C@H](C)[C@@H](O)CC1=O)[C@H](C)C[C@@H]2OC
SEM cells [1], HPLM + 10% dialyzed FBS
Details	cell viability [%]
0.000781 µM	115
0.00234 µM	128
0.00702 µM	117
0.0211 µM	135
0.0632 µM	122
0.19 µM	128
0.569 µM	117
1.71 µM	109
5.12 µM	109
15.4 µM	105
46.1 µM	104

AUC of viability dose-response curve
Details	NOMO1 [6]	P12-Ichikawa [5]	SEM cells [4]
HPLM + 10% dialyzed FBS	457	467	451
RPMI 5 mM glucose + 10% FBS	466	456	453
RPMI 5 mM glucose + 10% dialyzed FBS	474	468	449

CCCCCCOC(=O)/N=C(/N)c1ccc(NCc2nc3cc(C(=O)N(CCC(=O)OCC)c4ccccn4)ccc3n2C)cc1
cell viability [%], HPLM + 10% dialyzed FBS
Details	P12-Ichikawa [2]	SEM cells [1]
0.000781 µM	114	112
0.00234 µM	130	113
0.00702 µM	122	124
0.0211 µM	131	125
0.0632 µM	109	123
0.19 µM	138	125
0.569 µM	138	129
1.71 µM	125	134
5.12 µM	145	145
15.4 µM	121	137
46.1 µM	106	125

AUC of viability dose-response curve
Details	NOMO1 [6]	P12-Ichikawa [5]	SEM cells [4]
HPLM + 10% dialyzed FBS	443	475	448
RPMI 5 mM glucose + 10% FBS	449	465	468
RPMI 5 mM glucose + 10% dialyzed FBS	449	467	475
